Source: ChEMBL document CHEMBL1129218, “Bisbenzamidine isoxazoline derivatives as factor Xa inhibitors” (Bioorg Med Chem Lett, 1997)

Key:
Coagulation factor X = Coagulation factor X (Homo sapiens, UniProt P00742); assay: Inhibition of Factor Xa
Prothrombin = Prothrombin (Homo sapiens, UniProt P00734); assay: The compound was evaluated for inhibitory activity against Thrombin
Serine protease 1 = Serine protease 1 (Homo sapiens, UniProt P07477); assay: The compound was evaluated for inhibitory activity against Trypsin
Chain of Serine protease 1 (P07477 whole entry): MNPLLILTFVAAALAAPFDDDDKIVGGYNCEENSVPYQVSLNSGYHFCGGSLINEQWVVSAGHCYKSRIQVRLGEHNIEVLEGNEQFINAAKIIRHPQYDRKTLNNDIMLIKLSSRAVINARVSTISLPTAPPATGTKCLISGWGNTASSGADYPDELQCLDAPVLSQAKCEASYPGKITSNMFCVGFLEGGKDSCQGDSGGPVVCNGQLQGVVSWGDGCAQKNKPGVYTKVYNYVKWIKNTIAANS

Rattus norvegicus [1] = species: Rattus norvegicus; assay: Compound was tested for inhibitory dose which produced 50% inhibition of thrombus formation in a rat vena cava thrombosis model; format: functional
Rattus norvegicus [2] = assay: Percent inhibition for thrombus formation after intravenous infusion at 1 mg/kg/h in a rat vena cava thrombosis model; format: functional
Rattus norvegicus [3] = assay: Percent inhibition for thrombus formation after intravenous infusion at 5 mg/kg/h in a rat vena cava thrombosis model; format: functional

Chain of Coagulation factor X (P00742 41-179 limits assumed): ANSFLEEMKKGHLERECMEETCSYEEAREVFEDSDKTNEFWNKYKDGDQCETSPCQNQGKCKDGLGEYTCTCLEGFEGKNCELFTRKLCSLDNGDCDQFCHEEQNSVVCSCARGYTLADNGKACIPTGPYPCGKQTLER
Chain of Coagulation factor X (P00742 235-488 limits assumed): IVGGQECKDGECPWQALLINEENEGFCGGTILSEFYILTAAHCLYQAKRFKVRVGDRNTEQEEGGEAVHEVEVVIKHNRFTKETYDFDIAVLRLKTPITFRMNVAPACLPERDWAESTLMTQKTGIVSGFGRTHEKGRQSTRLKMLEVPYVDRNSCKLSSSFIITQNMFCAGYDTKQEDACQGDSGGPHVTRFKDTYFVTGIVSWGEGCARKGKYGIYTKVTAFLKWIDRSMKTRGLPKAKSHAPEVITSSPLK

In the case of `N=C(N)c1ccc(NC(=O)C2(CC(=O)O)CC(c3cccc(C(=N)N)c3)=NO2)cc1` (stereo unspecified), the Ki (Coagulation factor X) is reported as 143 nM, the Ki (Prothrombin) is reported as greater than 21000 nM and the Ki (Serine protease 1) is reported as greater than 1200 nM.
Compound `N=C(N)c1ccc(NC(=O)CC2CC(c3cccc(C(=N)N)c3)=NO2)cc1` (stereo unspecified) has a Ki (Coagulation factor X) of 1400 nM and a Ki (Prothrombin) of 11100 nM.
For `N=C(N)c1cccc(NC(=O)CC2CC(c3cccc(C(=N)N)c3)=NO2)c1` (stereo unspecified), the Ki (Coagulation factor X) was 1800 nM, the Ki (Prothrombin) was 11200 nM and the Ki (Serine protease 1) was greater than 1200 nM.
Compound `N=C(N)c1ccc(C2=NOC(CC(=O)Nc3cccc(C(=N)N)c3)C2)cc1` (stereo unspecified) has a Ki (Coagulation factor X) of 870 nM, a Ki (Prothrombin) of 2200 nM and a Ki (Serine protease 1) of 510 nM.
For `COC(=O)CC1(C(=O)Nc2cccc(C(=N)N)c2)CC(c2ccc(C(=N)N)cc2)=NO1` (stereo unspecified), the Ki (Coagulation factor X) was 117 nM, the Ki (Prothrombin) was 14100 nM and the Ki (Serine protease 1) was greater than 1200 nM.
Work on `COC(=O)CC1(C(=O)Nc2ccc(C(=N)N)cc2)CC(c2cccc(C(=N)N)c2)=NO1` (stereo unspecified) yielded an ID50 (Rattus norvegicus [1]) of 1.6 mg/kg/h, an inhibition in vivo at 1 mg/kg/h (Rattus norvegicus [2]) of 40% and an inhibition in vivo at 5 mg/kg/h (Rattus norvegicus [3]) of 80%. For the same compound, the Ki (Prothrombin) was 16000 nM and the Ki (Serine protease 1) was 480 nM.
`N=C(N)c1ccc(NC(=O)CC2CC(c3ccc(C(=N)N)cc3)=NO2)cc1` (stereo unspecified) gave a Ki (Coagulation factor X) of 1700 nM and a Ki (Prothrombin) of 2200 nM.
`N=C(N)c1ccc(/C=C2/CCCC/C(=C\c3ccc(C(=N)N)cc3)C2=O)cc1` was tested, and the Ki (Coagulation factor X) was 13 nM.
`N=C(N)c1ccc(NC(=O)C2CC(c3cccc(C(=N)N)c3)=NO2)cc1` (stereo unspecified) gave a Ki (Coagulation factor X) of 270 nM, a Ki (Prothrombin) of 16000 nM and a Ki (Serine protease 1) of 700 nM.
`COC(=O)CNC(=O)CC1(C(=O)Nc2ccc(C(=N)N)cc2)CC(c2cccc(C(=N)N)c2)=NO1` (stereo unspecified) showed a Ki (Coagulation factor X) of 18 nM, a Ki (Prothrombin) of 3100 nM and a Ki (Serine protease 1) of 420 nM.
In the case of `COC(=O)CC1(C(=O)Nc2cccc(C(=N)N)c2)CC(c2cccc(C(=N)N)c2)=NO1` (stereo unspecified), the Ki (Coagulation factor X) is reported as 800 nM, the Ki (Prothrombin) is reported as 11800 nM and the Ki (Serine protease 1) is reported as 230 nM.
